The text below walks through data of ChEMBL document CHEMBL4837241, “Identification of Betulinic Acid Derivatives as Potent TGR5 Agonists with Antidiabetic Effects via Humanized TGR5H88Y Mutant Mice” (J Med Chem, 2021).

Assay [1] has as its target T1, G-protein coupled bile acid receptor 1 (Homo sapiens, UniProt Q8TDU6).
T1 sequence (Q8TDU6 whole entry): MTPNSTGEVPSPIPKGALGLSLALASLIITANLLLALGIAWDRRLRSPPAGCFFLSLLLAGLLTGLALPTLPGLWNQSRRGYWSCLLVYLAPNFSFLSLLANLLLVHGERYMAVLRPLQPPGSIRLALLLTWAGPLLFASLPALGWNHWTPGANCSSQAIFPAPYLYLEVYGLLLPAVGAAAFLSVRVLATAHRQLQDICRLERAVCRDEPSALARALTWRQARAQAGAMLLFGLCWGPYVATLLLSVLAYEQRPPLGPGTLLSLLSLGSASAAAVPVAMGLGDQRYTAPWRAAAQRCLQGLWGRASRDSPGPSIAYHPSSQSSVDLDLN
Briefly: Agonist activity at N-terminal HA-tagged human TGR5 expressed in HEK293 cells assessed as […] in intracellular cAMP levels incubated for 30 mins by Lance Ultra cAMP assay. The class given is functional, cell-based. For orientation: Changes in cAMP serve as a functional read-out for many G protein-coupled receptors.

In assay [2] the target is T2, Bile acid receptor (Homo sapiens) (UniProt Q96RI1).
T2 sequence (whole entry): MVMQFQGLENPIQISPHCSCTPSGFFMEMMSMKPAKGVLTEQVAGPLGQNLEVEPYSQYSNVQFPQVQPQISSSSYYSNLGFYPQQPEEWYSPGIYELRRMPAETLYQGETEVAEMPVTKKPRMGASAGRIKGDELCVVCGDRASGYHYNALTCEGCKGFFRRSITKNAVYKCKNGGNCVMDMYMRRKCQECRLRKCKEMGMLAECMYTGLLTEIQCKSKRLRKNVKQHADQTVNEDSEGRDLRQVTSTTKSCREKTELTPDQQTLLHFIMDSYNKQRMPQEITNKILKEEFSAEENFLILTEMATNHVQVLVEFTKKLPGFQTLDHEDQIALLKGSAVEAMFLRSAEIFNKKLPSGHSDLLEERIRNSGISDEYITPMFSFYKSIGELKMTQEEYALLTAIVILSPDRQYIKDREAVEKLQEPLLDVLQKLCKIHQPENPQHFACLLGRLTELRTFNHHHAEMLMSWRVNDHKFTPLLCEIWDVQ
The assay is described as follows: Agonist activity at human FXR (247 to 467 residues) expressed in HEK293 cells at 100 uM incubated for 8 hrs by luciferase assay. In kind it is cell-based.

The target in assay [3] is T3, G-protein coupled bile acid receptor 1 (Homo sapiens) (UniProt Q8TDU6).
T3 sequence (whole entry): T1 sequence (Q8TDU6 whole entry)
Briefly: Agonist activity at N-terminal HA-tagged human TGR5 expressed in HEK293 cells assessed as […] in intracellular cAMP levels incubated for 30 mins by Lance Ultra cAMP assay relative to control. The class given is functional, cell-based. As to conditions: filed as agonist.

The term EC50 denotes the concentration needed to bring the measured effect to its halfway point. As a reminder, the Emax is the greatest response seen or fitted, relative to the assay's reference.

Structures are written as SMILES. The source made the active and inactive calls. No cut-off for these calls is given here.

Turning to `CC(=O)[C@@H]1CC[C@]2(C(=O)O)CC[C@]3(C)[C@H](CC[C@@H]4[C@@]5(C)CC[C@@H](OC(=O)NC6CC6)C(C)(C)[C@@H]5CC[C@]43C)[C@@H]12`, the EC50 in assay [1] worked out at 13.1 nM. Besides, in assay [2], the outcome was inactive. Further, the Emax in assay [3] was 100%.
Regarding `CC(C)[C@@H]1CC[C@]2(NC(=O)NCC(=O)O)CC[C@]3(C)[C@H](CC[C@@H]4[C@@]5(C)CC[C@@H](OC(=O)NC6CC6)C(C)(C)[C@@H]5CC[C@]43C)[C@@H]12`, the EC50 in assay [1] came out at 174 nM. Also, the result in assay [2] was inactive. Also, the Emax in assay [3] is 99%.
For `CCCNC(=O)O[C@@H]1CC[C@]2(C)[C@H]3CC[C@@H]4[C@H]5[C@H](C(C)C)CC[C@]5(C(=O)O)CC[C@@]4(C)[C@]3(C)CC[C@H]2C1(C)C`, the EC50 in assay [1] amounted to 26.9 nM. Moreover, in assay [2], the result was inactive. In addition, the Emax in assay [3] is 96%.
`C[C@@H](O)[C@@H]1CC[C@]2(C(=O)O)CC[C@]3(C)[C@H](CC[C@@H]4[C@@]5(C)CC[C@@H](OC(=O)NC6CC6)C(C)(C)[C@@H]5CC[C@]43C)[C@@H]12`: the EC50 in assay [1] is 38 nM. The outcome in assay [2] was inactive. Moreover, the Emax in assay [3] is 99%.
For `CC(C)[C@@H]1CC[C@]2(N)CC[C@]3(C)[C@H](CC[C@@H]4[C@@]5(C)CC[C@@H](OC(=O)NC6CC6)C(C)(C)[C@@H]5CC[C@]43C)[C@@H]12`, in assay [1], the EC50 turned out to be 867 nM. The result in assay [2] was inactive. In addition, the Emax in assay [3] is 97%.
Consider `CNS(=O)(=O)O[C@@H]1CC[C@]2(C)[C@H]3CC[C@@H]4[C@H]5[C@H](C(C)C)CC[C@]5(C(=O)O)CC[C@@]4(C)[C@]3(C)CC[C@H]2C1(C)C`, for which the EC50 in assay [1] amounted to 45.4 nM. Also, the result in assay [2] was inactive. In addition, the Emax in assay [3] came to 99%.
As for `CC(C)[C@@H]1CC[C@]2(C(=O)OCC(=O)O)CC[C@]3(C)[C@H](CC[C@@H]4[C@@]5(C)CC[C@@H](OC(=O)NC6CC6)C(C)(C)[C@@H]5CC[C@]43C)[C@@H]12`, in assay [1], the EC50 stood at 306 nM. Further, the result in assay [2] was inactive. For the same molecule, the Emax in assay [3] is 98%.
As to `CCN(C)C(=O)O[C@@H]1CC[C@]2(C)[C@H]3CC[C@@H]4[C@H]5[C@H](C(C)C)CC[C@]5(C(=O)O)CC[C@@]4(C)[C@]3(C)CC[C@H]2C1(C)C`, the EC50 in assay [1] was 211 nM. For the same molecule, in assay [2], the outcome was inactive. In assay [3], the Emax worked out at 92%.
In the case of `CCCS(=O)(=O)O[C@@H]1CC[C@]2(C)[C@H]3CC[C@@H]4[C@H]5[C@H](C(C)C)CC[C@]5(C(=O)O)CC[C@@]4(C)[C@]3(C)CC[C@H]2C1(C)C`, the EC50 in assay [1] was 77.6 nM. Besides, the result in assay [2] was inactive. Besides, in assay [3], the Emax stood at 98%.
As for `CC(C)[C@@H]1CC[C@]2(NC(=O)OCC(=O)O)CC[C@]3(C)[C@H](CC[C@@H]4[C@@]5(C)CC[C@@H](OC(=O)NC6CC6)C(C)(C)[C@@H]5CC[C@]43C)[C@@H]12`, the EC50 in assay [1] is 271 nM. Also, the outcome in assay [2] was inactive. Moreover, in assay [3], the Emax was found to be 98%.
The matching figures for `CCNC(=O)O[C@@H]1CC[C@]2(C)[C@H]3CC[C@@H]4[C@H]5[C@H](C(C)C)CC[C@]5(C(=O)O)CC[C@@]4(C)[C@]3(C)CC[C@H]2C1(C)C`: 13 nM, “inactive” and 100%.
In the case of `COc1ccc(NC(=O)O[C@@H]2CC[C@]3(C)[C@H]4CC[C@@H]5[C@H]6[C@H](C(C)C)CC[C@]6(C(=O)O)CC[C@@]5(C)[C@]4(C)CC[C@H]3C2(C)C)cc1`, the EC50 in assay [1] was 230 nM. Further, the result in assay [2] was inactive. The Emax in assay [3] came out at 91%.
For the molecule `CC(C)[C@@H]1CC[C@]2(C(=O)O)CC[C@]3(C)[C@H](CC[C@@H]4[C@@]5(C)CC[C@@H](OC(=O)N6CCOCC6)C(C)(C)[C@@H]5CC[C@]43C)[C@@H]12`, the EC50 in assay [1] stood at 452 nM. Also, the result in assay [2] was inactive. In addition, the Emax in assay [3] stood at 95%.
As for `CCOC(=O)O[C@@H]1CC[C@]2(C)[C@H]3CC[C@@H]4[C@H]5[C@H](C(C)C)CC[C@]5(C(=O)O)CC[C@@]4(C)[C@]3(C)CC[C@H]2C1(C)C`, in assay [1], the EC50 turned out to be 80 nM. In addition, the result in assay [2] was inactive. For the same molecule, the maximal response (Emax) in assay [3] came out at 92%.
`CCNS(=O)(=O)O[C@@H]1CC[C@]2(C)[C@H]3CC[C@@H]4[C@H]5[C@H](C(C)C)CC[C@]5(C(=O)O)CC[C@@]4(C)[C@]3(C)CC[C@H]2C1(C)C`: the EC50 in assay [1] amounted to 68.6 nM. The result in assay [2] was inactive. For the same molecule, the maximal response (Emax) in assay [3] was 98%.
Regarding `CC1(C)[C@H](OC(=O)NC2CC2)CC[C@]2(C)[C@H]3CC[C@@H]4[C@H]5[C@H]([C@@]6(C)CO6)CC[C@]5(C(=O)O)CC[C@@]4(C)[C@]3(C)CC[C@@H]12`, in assay [1], the EC50 was determined as 18.6 nM. The outcome in assay [2] was inactive. Moreover, the Emax in assay [3] worked out at 99%.
As to `CNC(=O)O[C@@H]1CC[C@]2(C)[C@H]3CC[C@@H]4[C@H]5[C@H](C(C)C)CC[C@]5(C(=O)O)CC[C@@]4(C)[C@]3(C)CC[C@H]2C1(C)C`, the EC50 in assay [1] worked out at 17.8 nM. Moreover, the result in assay [2] was inactive. For the same molecule, in assay [3], the maximal effect (Emax) is 98%.
With `CC(C)[C@@H]1CC[C@]2(C(=O)O)CC[C@]3(C)[C@H](CC[C@@H]4[C@@]5(C)CC[C@@H](OC(=O)CO)C(C)(C)[C@@H]5CC[C@]43C)[C@@H]12`, in assay [1], the EC50 was 27 nM. In addition, the result in assay [2] was inactive. Moreover, in assay [3], the Emax stood at 100%.
Take `CO/N=C(/C)[C@@H]1CC[C@]2(C(=O)O)CC[C@]3(C)[C@H](CC[C@@H]4[C@@]5(C)CC[C@@H](OC(=O)NC6CC6)C(C)(C)[C@@H]5CC[C@]43C)[C@@H]12`: the EC50 in assay [1] stood at 132 nM. In addition, in assay [2], the result was inactive. Besides, the Emax in assay [3] was found to be 97%.
Consider `COCC(=O)O[C@@H]1CC[C@]2(C)[C@H]3CC[C@@H]4[C@H]5[C@H](C(C)C)CC[C@]5(C(=O)O)CC[C@@]4(C)[C@]3(C)CC[C@H]2C1(C)C`, for which the EC50 in assay [1] came out at 25.2 nM. For the same molecule, in assay [2], the outcome was inactive. Also, the Emax in assay [3] was found to be 100%.
On to `CC(C)[C@@H]1CC[C@]2(C(=O)O)CC[C@]3(C)[C@H](CC[C@@H]4[C@@]5(C)CC[C@@H](OC(=O)Nc6cc[nH]n6)C(C)(C)[C@@H]5CC[C@]43C)[C@@H]12`, for which the EC50 in assay [1] turned out to be 175 nM. In assay [2], the result was inactive. Moreover, in assay [3], the Emax worked out at 94%.
On to `CC(C)[C@@H]1CC[C@]2(C(=O)O)CC[C@]3(C)[C@H](CC[C@@H]4[C@@]5(C)CC[C@@H](OC(=O)NC6CCC6)C(C)(C)[C@@H]5CC[C@]43C)[C@@H]12`, for which the EC50 in assay [1] was determined as 26.7 nM. Also, the result in assay [2] was inactive. Further, the Emax in assay [3] was determined as 92%.
The matching figures for `CC(C)[C@@H]1CC[C@]2(C(=O)O)CC[C@]3(C)[C@H](CC[C@@H]4[C@@]5(C)CC[C@@H](OC(=O)Nc6ccc(F)cc6)C(C)(C)[C@@H]5CC[C@]43C)[C@@H]12`: 1510 nM, “inactive” and 75%.
As for `CC(C)[C@@H]1CC[C@]2(C(=O)NCC(=O)O)CC[C@]3(C)[C@H](CC[C@@H]4[C@@]5(C)CC[C@@H](OC(=O)NC6CC6)C(C)(C)[C@@H]5CC[C@]43C)[C@@H]12`, in assay [1], the EC50 is 380 nM. Besides, the outcome in assay [2] was inactive. For the same molecule, the Emax in assay [3] stood at 96%.
